Data published in patent EP0343801A2, “N-(5,6,7,8-tetrahydropyrido(2,3-D)pyrimidin-6-yl-alkanoyl)-glutamic acid derivatives” (THE TRUSTEES OF PRINCETON UNIVERSITY, priority 1988, dated 1989).
In brackets after ≈: the same amount, converted by molar mass.

Key:
[1] = tested on: CCRF-CEM; test: IC50 in whole cell human leukemia cell lines, CCRF-CEM; format: cell-based; conditions: read-out: IC₅₀
Protocol: The IC₅₀ in whole cell human leukemia cell lines, CCRF-CEM, of N-[5-(2-{2-amino-4-hydroxy-5,6,7,8-tetrahydropyrido[2,3-d]pyrimidin-6-yl}ethyl)thien-2-ylcarbonyl]-L-glutamic acid is 0.0015 ug/mL. The IC₅₀ of N-[5-(2-{2-amino-4-hydroxy-5,6,7,8-tetrahydropyrido[2,3-d]pyrimidin-6-yl}ethyl)fur-2-ylcarbonyl]-L-glutamic acid is 0.010 ug/mL. The IC₅₀ of N-[4-(2-{2-amino-4-hydroxy-5,6,7,8-tetrahydropyrido[2,3-d]pyrimidin-6-yl}-ethyl)thien-2-ylcarbonyl]-L-glutamic acid is 0.0756 ug/mL.
The IC₅₀ in whole cell human leukemia cell lines, CCRF-CEM, of other compounds of this invention are as follows: […]

[2] = tested on: 6C3HED lymphosarcoma tumors; test: In vivo evaluation against 6C3HED lymphosarcoma tumors in mice; conditions: IP, daily administration
[3] = tested on: B-16 Melanoma tumors; test: In vivo evaluation against B-16 Melanoma tumors in mice; conditions: IP, daily administration, days 1, 7
[4] = tested on: CA-755 Adenocarcinoma tumors; test: In vivo evaluation against CA-755 Adenocarcinoma tumors in mice; conditions: IP, daily administration, days 1, 4, 7, 10
[5] = tested on: LX-1 Lung Xenography; test: In vivo evaluation against LX-1 Lung Xenography in mice; conditions: IP, daily administration, days 1, 4, 7, 10
[6] = tested on: CX-1 Colon Xenography; test: In vivo evaluation against CX-1 Colon Xenography in mice; conditions: IP, daily administration, days 1, 4, 7, 10
[7] = tested on: MX-1 Mammary Xenography; test: In vivo evaluation against MX-1 Mammary Xenography in mice; conditions: IP, daily administration, days 1, 4, 7, 10
[8] = tested on: C3H Mammary Adenocarcinoma tumors; test: In vivo evaluation against C3H Mammary Adenocarcinoma tumors in mice; conditions: IP, daily administration, days 1, 4, 7, 10

Compound `Nc1nc(O)c2c(n1)NCC(CCCCC(=O)N[C@@H](CCC(=O)O)C(=O)O)C2` (stereo partly drawn) [-(CH₂)₂-, N-[5-(2-amino-4-hydroxy-5,6,7,8-tetrahydropyrido[2,3-d]pyrimidin-6-yl)pentanoyl]-L-glutamic acid] has an IC50 [1] of 0.023 µg/mL (≈ 0.0582 µM).
Compound `Nc1nc(O)c2c(n1)NCC(CCCCCC(=O)N[C@@H](CCC(=O)O)C(=O)O)C2` (stereo partly drawn) [-(CH₂)₃-, N-[6-(2-Amino-4-hydroxy-5,6,7,8-tetrahydropyrido[2,3-d]pyrimidin-6-yl)hexanoyl]-L-glutamic Acid] has an IC50 [1] of 0.0075 µg/mL (≈ 0.0183 µM).
Work on `Nc1nc(O)c2c(n1)NCC(CCCCCCC(=O)N[C@@H](CCC(=O)O)C(=O)O)C2` (stereo partly drawn) [-(CH₂)₄- CH₂-CH₂, N-[7-(2-Amino-4-hydroxy-5,6,7,8-tetrahydropyrido[2,3-d]pyrimidin-6-yl)heptanoyl]-L-glutamic acid] yielded an IC50 [1] of 0.034 µg/mL (≈ 0.0803 µM).
In the case of `Nc1nc(O)c2c(n1)NCC(CCCC(=O)N[C@@H](CCC(=O)O)C(=O)O)C2` (stereo partly drawn) [N-[4-(2-amino-4-hydroxy-5,6,7,8-tetrahydropyrido[2,3-d]pyrimidin-6-yl)butyryl]-L-glutamic acid], the “% Inhibition” value ([2]; 3.12 mg/kg, eight days) is reported as 0%, the Toxicity ([2]; 3.12 mg/kg, eight days) is reported as 0/10 and the “% Inhibition” value ([2]; 6.25 mg/kg, eight days) is reported as 11%. For the same compound, the Toxicity ([2]; 6.25 mg/kg, eight days) was 0/10, the “% Inhibition” value ([2]; 12.5 mg/kg, eight days) was 62% and the Toxicity ([2]; 12.5 mg/kg, eight days) was 0/10. The “% Inhibition” value ([2]; 25 mg/kg, eight days) was 88%, the Toxicity ([2]; 25 mg/kg, eight days) was 0/10 and the “% Inhibition” value ([2]; 50 mg/kg, eight days) was 98%. The Toxicity ([2]; 50 mg/kg, eight days) was 1/10.
`Nc1nc(O)c2c(n1)NCC(CCc1csc(C(=O)N[C@@H](CCC(=O)O)C(=O)O)c1)C2` (stereo partly drawn) [N-[4-(2-{2-amino-4-hydroxy-5,6,7,8-tetrahydropyrido[2,3-d]pyrimidin-6-yl}ethyl)thien-2-ylcarbonyl]-L-glutamic acid] showed an IC50 [1] of 0.0756 µg/mL (≈ 0.168 µM).
For `Nc1nc(O)c2c(n1)NCC(CCc1ccc(C(=O)N[C@@H](CCC(=O)O)C(=O)O)s1)C2` (stereo partly drawn) [N-[5-(2-{2-Amino-4-hydroxy-5,6,7,8-tetrahydropyrido[2,3-d]pyrimidin-6-yl}ethyl)thien-2-ylcarbonyl]-L-glutamic Acid], the IC50 [1] was 0.0015 µg/mL (≈ 0.00334 µM), the “% Inhibition” value ([2]; 0.78 mg/kg, 10 days) was 93% and the Toxicity ([2]; 0.78 mg/kg, 10 days) was 0/10. The “% Inhibition” value ([2]; 1.56 mg/kg, 10 days) was 100%, the Toxicity ([2]; 1.56 mg/kg, 10 days) was 0/10 and the “% Inhibition” value ([2]; 3.12 mg/kg, 10 days) was 100%. The Toxicity ([2]; 3.12 mg/kg, 10 days) was 6/10, the “% Inhibition” value ([2]; 6.25 mg/kg, 10 days) was “toxic” and the Toxicity ([2]; 6.25 mg/kg, 10 days) was 10/10. For the same compound, the “% Inhibition” value ([3]; 50 mg/kg) was 38%, the Toxicity ([3]; 50 mg/kg) was 0/9 and the “% Inhibition” value ([3]; 100 mg/kg) was 73%. For the same compound, the Toxicity ([3]; 100 mg/kg) was 3/10, the “% Inhibition” value ([3]; 200 mg/kg) was 93% and the Toxicity ([3]; 200 mg/kg) was 4/10. The “% Inhibition” value ([4]; 20 mg/kg) was 78%, the Toxicity ([4]; 20 mg/kg) was 0/10 and the “% Inhibition” value ([4]; 40 mg/kg) was 83%. For the same compound, the Toxicity ([4]; 40 mg/kg) was 0/10, the “% Inhibition” value ([5]; 10 mg/kg) was 98% and the Toxicity ([5]; 10 mg/kg) was 0/8. The “% Inhibition” value ([5]; 20 mg/kg) was 100%, the Toxicity ([5]; 20 mg/kg) was 4/8 and the “% Inhibition” value ([5]; 40 mg/kg) was “toxic”. The Toxicity ([5]; 40 mg/kg) was 8/8, the “% Inhibition” value ([6]; 5 mg/kg) was 90% and the Toxicity ([6]; 5 mg/kg) was 3/10. The “% Inhibition” value ([6]; 10 mg/kg) was 94%, the Toxicity ([6]; 10 mg/kg) was 6/10 and the “% Inhibition” value ([6]; 20 mg/kg) was 91%. For the same compound, the Toxicity ([6]; 20 mg/kg) was 9/10, the “% Inhibition” value ([6]; 40 mg/kg) was “toxic” and the Toxicity ([6]; 40 mg/kg) was 10/10. The “% Inhibition” value ([7]; 5 mg/kg) was 84%, the Toxicity ([7]; 5 mg/kg) was 3/10 and the “% Inhibition” value ([7]; 10 mg/kg) was 96%. For the same compound, the Toxicity ([7]; 10 mg/kg) was 5/10, the “% Inhibition” value ([7]; 20 mg/kg) was “toxic” and the Toxicity ([7]; 20 mg/kg) was 9/9. The “% Inhibition” value ([7]; 40 mg/kg) was “toxic”, the Toxicity ([7]; 40 mg/kg) was 10/10 and the “% Inhibition” value ([8]; 2.5 mg/kg) was 71%. For the same compound, the Toxicity ([8]; 2.5 mg/kg) was 0/10, the “% Inhibition” value ([8]; 5 mg/kg) was 90% and the Toxicity ([8]; 5 mg/kg) was 1/10. For the same compound, the “% Inhibition” value ([8]; 10 mg/kg) was 94%, the Toxicity ([8]; 10 mg/kg) was 0/10 and the “% Inhibition” value ([8]; 20 mg/kg) was 100%. The Toxicity ([8]; 20 mg/kg) was 0/10, the “% Inhibition” value ([8]; 40 mg/kg) was 100% and the Toxicity ([8]; 40 mg/kg) was 0/10.
`Nc1nc(O)c2c(n1)NCC(CCc1ccc(C(=O)N[C@@H](CCC(=O)O)C(=O)O)o1)C2` (stereo partly drawn) [N-[5-(2-{2-amino-4-hydroxy-5,6,7,8-tetrahydropyrido[2,3-d]pyrimidin-6-yl}ethyl)fur-2-ylcarbonyl]-L-glutamic acid] was tested, and the IC50 [1] was 0.01 µg/mL (≈ 0.0231 µM), the “% Inhibition” value ([2]; 0.625 mg/kg, days 1, 4, 7) was 1% and the Toxicity ([2]; 0.625 mg/kg, days 1, 4, 7) was 0/10. For the same compound, the “% Inhibition” value ([2]; 1.25 mg/kg, days 1, 4, 7) was 29%, the Toxicity ([2]; 1.25 mg/kg, days 1, 4, 7) was 0/10 and the “% Inhibition” value ([2]; 2.5 mg/kg, days 1, 4, 7) was 98%. For the same compound, the Toxicity ([2]; 2.5 mg/kg, days 1, 4, 7) was 0/10, the “% Inhibition” value ([2]; 5 mg/kg, days 1, 4, 7) was 97% and the Toxicity ([2]; 5 mg/kg, days 1, 4, 7) was 0/10. The “% Inhibition” value ([2]; 10 mg/kg, days 1, 4, 7) was 100%, the Toxicity ([2]; 10 mg/kg, days 1, 4, 7) was 0/10 and the “% Inhibition” value ([2]; 20 mg/kg, days 1, 4, 7) was 100%. For the same compound, the Toxicity ([2]; 20 mg/kg, days 1, 4, 7) was 0/10, the “% Inhibition” value ([2]; 25 mg/kg, eight days) was 59% and the Toxicity ([2]; 25 mg/kg, eight days) was 0/10. For the same compound, the “% Inhibition” value ([2]; 50 mg/kg, eight days) was 69%, the Toxicity ([2]; 50 mg/kg, eight days) was 0/10 and the “% Inhibition” value ([2]; 100 mg/kg, eight days) was 89%. The Toxicity ([2]; 100 mg/kg, eight days) was 0/10.
In the case of `Nc1nc(O)c2c(n1)NCC(CCC1CCC(C(=O)N[C@@H](CCC(=O)O)C(=O)O)CC1)C2` (stereo partly drawn) [N-{4-[2-(2-amino-4-hydroxy-5,6,7,8-tetrahydropyrido[2,3-d]pyrimidin-6-yl)ethyl]cyclohexylcarbonyl}-L-glutamic acid], the IC50 [1] is reported as 0.007 µg/mL (≈ 0.0156 µM), the “% Inhibition” value ([2]; 12.5 mg/kg, eight days) is reported as 18% and the Toxicity ([2]; 12.5 mg/kg, eight days) is reported as 0/10. The “% Inhibition” value ([2]; 25 mg/kg, eight days) was 4%, the Toxicity ([2]; 25 mg/kg, eight days) was 0/10 and the “% Inhibition” value ([2]; 50 mg/kg, eight days) was 5%. For the same compound, the Toxicity ([2]; 50 mg/kg, eight days) was 0/10, the “% Inhibition” value ([2]; 100 mg/kg, eight days) was 22% and the Toxicity ([2]; 100 mg/kg, eight days) was 0/9.
